# Measured values: ChEMBL document CHEMBL1201862, “PubChem BioAssay data set” (2004)
#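 In this assay, cells in 96-well plates receive the compound at five concentrations for 48 hours. Endpoints are linearly interpolated between the surrounding concentrations. The concentration for 50% growth inhibition is given as GI50.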 Calls of active or inactive are those of the source. Rule as the data show it: active = GI50 up to about 1.1 µM and inactive = higher.
# What was measured:
# Assay in all cases: NCI tumour cell line growth inhibition, 48 h
# KM-20L2 = test system: KM-20L2
# ACHN = test system: ACHN
# SF-539 = test system: SF-539
# TK-10 = test system: TK-10
# HL-60 = test system: HL-60
# CCRF-CEM = test system: CCRF-CEM
# SN12C = test system: SN12C
# HT-29 = test system: HT-29
# SNB-78 = test system: SNB-78
# HCC 2998 = test system: HCC 2998
# SR = test system: SR
# OVCAR-8 = test system: OVCAR-8
# HOP-92 = test system: HOP-92
# SF-268 = test system: SF-268
# SK-MEL-5 = test system: SK-MEL-5
# HOP-18 = test system: HOP-18
# SF-295 = test system: SF-295
# XF498 = test system: XF498
# UACC-62 = test system: UACC-62
# UACC-257 = test system: UACC-257
# UO-31 = test system: UO-31
# DLD-1 = test system: DLD-1
# M19-MEL = test system: M19-MEL
# MOLT-4 = test system: MOLT-4
# EKVX = test system: EKVX
# SNB-75 = test system: SNB-75
# Malme-3M = test system: Malme-3M
# A549 = test system: A549
# RXF 631 = test system: RXF 631
# HCT-15 = test system: HCT-15
# HOP-62 = test system: HOP-62
# RXF 393 = test system: RXF 393
# SK-MEL-2 = test system: SK-MEL-2
# SK-OV-3 = test system: SK-OV-3
# CAKI-1 = test system: CAKI-1
# NCI-H23 = test system: NCI-H23
# NCI-H460 = test system: NCI-H460
# NCI-H522 = test system: NCI-H522
# RPMI-8226 = test system: RPMI-8226
# SW-620 = test system: SW-620
# OVCAR-5 = test system: OVCAR-5
# DMS-114 = test system: DMS-114
# OVCAR-4 = test system: OVCAR-4
# U-251 = test system: U-251
# LOX IMVI = test system: LOX IMVI
# SNB-19 = test system: SNB-19
# HCT-116 = test system: HCT-116
# NCI-H226 = test system: NCI-H226
# IGROV-1 = test system: IGROV-1
# K562 = test system: K562
# OVCAR-3 = test system: OVCAR-3
# DMS-273 = test system: DMS-273
# LXFL 529 = test system: LXFL 529
# M14 = test system: M14
# 786-0 = test system: 786-0
# KM12 = test system: KM12
# COLO 205 = test system: COLO 205
# A498 = test system: A498
# SK-MEL-28 = test system: SK-MEL-28
smiles,measurement,setting,value
COc1cc2c(cc1OC)C1Cc3sccc3CN1CC2 (stereo unspecified),GI50,KM-20L2,> 100 µM (inactive)
same,GI50,ACHN,> 100 µM (inactive)
same,GI50,SF-539,> 100 µM (inactive)
same,GI50,TK-10,> 100 µM (inactive)
same,GI50,HL-60,> 100 µM (inactive)
same,GI50,CCRF-CEM,> 100 µM (inactive)
same,GI50,SN12C,> 100 µM (inactive)
same,GI50,HT-29,> 100 µM (inactive)
same,GI50,SNB-78,> 100 µM (inactive)
same,GI50,HCC 2998,> 100 µM (inactive)
same,GI50,SR,88.9 µM (inactive)
same,GI50,OVCAR-8,> 100 µM (inactive)
same,GI50,HOP-92,76.2 µM (inactive)
same,GI50,SF-268,> 100 µM (inactive)
same,GI50,SK-MEL-5,> 100 µM (inactive)
same,GI50,HOP-18,> 100 µM (inactive)
same,GI50,SF-295,> 100 µM (inactive)
same,GI50,XF498,> 100 µM (inactive)
same,GI50,UACC-62,> 100 µM (inactive)
same,GI50,UACC-257,> 100 µM (inactive)
same,GI50,UO-31,> 100 µM (inactive)
same,GI50,DLD-1,> 100 µM (inactive)
same,GI50,M19-MEL,> 100 µM (inactive)
same,GI50,MOLT-4,> 100 µM (inactive)
same,GI50,EKVX,> 100 µM (inactive)
same,GI50,SNB-75,> 100 µM (inactive)
same,GI50,Malme-3M,> 100 µM (inactive)
same,GI50,A549,> 100 µM (inactive)
same,GI50,RXF 631,> 100 µM (inactive)
same,GI50,HCT-15,> 100 µM
same,GI50,HOP-62,> 100 µM (inactive)
same,GI50,RXF 393,> 100 µM (inactive)
same,GI50,SK-MEL-2,> 100 µM (inactive)
same,GI50,SK-OV-3,> 100 µM (inactive)
same,GI50,CAKI-1,> 100 µM (inactive)
same,GI50,NCI-H23,> 100 µM (inactive)
same,GI50,NCI-H460,> 100 µM (inactive)
same,GI50,NCI-H522,> 100 µM (inactive)
same,GI50,RPMI-8226,> 100 µM (inactive)
same,GI50,SW-620,> 100 µM (inactive)
same,GI50,OVCAR-5,> 100 µM (inactive)
same,GI50,DMS-114,> 100 µM (inactive)
same,GI50,OVCAR-4,> 100 µM (inactive)
same,GI50,U-251,> 100 µM (inactive)
same,GI50,LOX IMVI,> 100 µM (inactive)
same,GI50,SNB-19,> 100 µM (inactive)
same,GI50,HCT-116,> 100 µM (inactive)
same,GI50,NCI-H226,> 100 µM (inactive)
same,GI50,IGROV-1,> 100 µM (inactive)
same,GI50,K562,> 100 µM (inactive)
same,GI50,OVCAR-3,> 100 µM (inactive)
same,GI50,DMS-273,> 100 µM (inactive)
same,GI50,LXFL 529,> 100 µM (inactive)
same,GI50,M14,72.4 µM (inactive)
CC(C)(C)C1(c2ccc(C3(c4ccccc4)Oc4ccccc4S3)[nH]2)Oc2ccccc2S1 (stereo unspecified),GI50,KM-20L2,> 100 µM (inactive)
same,GI50,ACHN,> 100 µM (inactive)
same,GI50,SF-539,> 100 µM (inactive)
same,GI50,TK-10,> 100 µM (inactive)
same,GI50,HL-60,> 100 µM (inactive)
same,GI50,CCRF-CEM,> 100 µM (inactive)
same,GI50,SN12C,> 100 µM (inactive)
same,GI50,HT-29,> 100 µM (inactive)
same,GI50,SNB-78,> 100 µM (inactive)
same,GI50,HCC 2998,> 100 µM (inactive)
same,GI50,OVCAR-8,> 100 µM (inactive)
same,GI50,HOP-92,26.8 µM (inactive)
same,GI50,SF-268,> 100 µM (inactive)
same,GI50,SK-MEL-5,> 100 µM (inactive)
same,GI50,HOP-18,> 100 µM (inactive)
same,GI50,SF-295,> 100 µM (inactive)
same,GI50,XF498,32.5 µM (inactive)
same,GI50,UACC-62,> 100 µM (inactive)
same,GI50,UACC-257,92.9 µM (inactive)
same,GI50,UO-31,90.4 µM (inactive)
same,GI50,DLD-1,> 100 µM (inactive)
same,GI50,M19-MEL,> 100 µM (inactive)
same,GI50,MOLT-4,65.5 µM (inactive)
same,GI50,EKVX,> 100 µM (inactive)
same,GI50,Malme-3M,> 100 µM (inactive)
same,GI50,A549,> 100 µM (inactive)
same,GI50,RXF 631,> 100 µM (inactive)
same,GI50,HCT-15,> 100 µM
same,GI50,HOP-62,> 100 µM (inactive)
same,GI50,RXF 393,> 100 µM (inactive)
same,GI50,SK-MEL-2,> 100 µM (inactive)
same,GI50,SK-OV-3,> 100 µM (inactive)
same,GI50,CAKI-1,> 100 µM (inactive)
same,GI50,NCI-H23,> 100 µM (inactive)
same,GI50,NCI-H460,> 100 µM (inactive)
same,GI50,NCI-H522,> 100 µM (inactive)
same,GI50,RPMI-8226,96.2 µM (inactive)
same,GI50,SW-620,> 100 µM (inactive)
same,GI50,OVCAR-5,> 100 µM (inactive)
same,GI50,DMS-114,> 100 µM (inactive)
same,GI50,U-251,> 100 µM (inactive)
same,GI50,LOX IMVI,> 100 µM (inactive)
same,GI50,SNB-19,> 100 µM (inactive)
same,GI50,HCT-116,> 100 µM (inactive)
same,GI50,NCI-H226,55 µM (inactive)
same,GI50,IGROV-1,> 100 µM (inactive)
same,GI50,K562,> 100 µM (inactive)
same,GI50,OVCAR-3,> 100 µM (inactive)
same,GI50,DMS-273,> 100 µM (inactive)
same,GI50,LXFL 529,> 100 µM (inactive)
same,GI50,M14,> 100 µM (inactive)
Cn1cc(NC(=O)c2cc(NC(=O)CCCCCCCC(=O)Nc3cc(C(=O)Nc4cc(C(=O)NCCC(=N)N)n(C)c4)n(C)c3)cn2C)cc1C(=O)NCCC(=N)N,GI50,KM-20L2,> 100 µM (inactive)
same,GI50,ACHN,58.1 µM (inactive)
same,GI50,SF-539,17.7 µM (inactive)
same,GI50,786-0,34 µM (inactive)
same,GI50,KM12,7.53 µM (inactive)
same,GI50,TK-10,15 µM (inactive)
same,GI50,COLO 205,13.2 µM (inactive)
same,GI50,A498,13.7 µM (inactive)
same,GI50,HL-60,3.15 µM (inactive)
same,GI50,CCRF-CEM,25.3 µM (inactive)
same,GI50,SN12C,12.6 µM (inactive)
same,GI50,HT-29,63.1 µM (inactive)
same,GI50,SNB-78,35.2 µM (inactive)
same,GI50,HCC 2998,16.1 µM (inactive)
same,GI50,SR,5.26 µM (inactive)
same,GI50,OVCAR-8,19.1 µM (inactive)
same,GI50,HOP-92,> 100 µM (inactive)
same,GI50,SF-268,19.8 µM (inactive)
same,GI50,SK-MEL-5,7.53 µM (inactive)
same,GI50,HOP-18,34 µM (inactive)
same,GI50,SF-295,> 100 µM (inactive)
same,GI50,XF498,29.2 µM (inactive)
same,GI50,UACC-62,15.7 µM (inactive)
same,GI50,UACC-257,5.7 µM (inactive)
same,GI50,UO-31,> 100 µM (inactive)
same,GI50,DLD-1,30.9 µM (inactive)
same,GI50,M19-MEL,5.43 µM (inactive)
same,GI50,MOLT-4,21.9 µM (inactive)
same,GI50,EKVX,22 µM (inactive)
same,GI50,SNB-75,35.2 µM (inactive)
same,GI50,Malme-3M,5.75 µM (inactive)
same,GI50,A549,13.9 µM (inactive)
same,GI50,RXF 631,56.9 µM (inactive)
same,GI50,HCT-15,> 100 µM
same,GI50,HOP-62,> 100 µM (inactive)
same,GI50,RXF 393,17 µM (inactive)
same,GI50,SK-MEL-2,14.1 µM (inactive)
same,GI50,SK-OV-3,> 100 µM (inactive)
same,GI50,CAKI-1,18.8 µM (inactive)
same,GI50,NCI-H23,17.3 µM (inactive)
same,GI50,NCI-H460,4.69 µM (inactive)
same,GI50,SW-620,32.7 µM (inactive)
same,GI50,OVCAR-5,> 100 µM (inactive)
same,GI50,DMS-114,4.03 µM (inactive)
same,GI50,OVCAR-4,46.1 µM (inactive)
same,GI50,U-251,17.2 µM (inactive)
same,GI50,LOX IMVI,15 µM (inactive)
same,GI50,SNB-19,55.1 µM (inactive)
same,GI50,SK-MEL-28,11.7 µM (inactive)
same,GI50,HCT-116,17.9 µM (inactive)
same,GI50,IGROV-1,5.82 µM (inactive)
same,GI50,K562,11 µM (inactive)
same,GI50,OVCAR-3,32.1 µM (inactive)
same,GI50,DMS-273,11.2 µM (inactive)
same,GI50,LXFL 529,12.4 µM (inactive)
same,GI50,M14,27.9 µM (inactive)
